Measured values from patent US10174011B2, “Heterocyclic compounds, process for preparation of the same and use thereof” (SHANGHAI INSTITUTE OF MATERIA MEDICA, CHINESE ACADEMY OF …, priority 2014, dated 2019).
Read-outs that look alike come from different tables or passages of the source.

Experiments:
[1] = target: human recombinant 5-HT1A receptor (Homo sapiens (Human), UniProt P08908); assay: 5-HT1A receptor agonism activity test (inhibition of cAMP production, LANCE cAMP 384 Kit); format: cell-based; settings: HEK293 cells expressing human recombinant 5-HT1A receptor; test concentration 0.1 nM-10000 nM; read-out: 5-HT1A receptor agonism (EC50, mol/L)
Sequence of human recombinant 5-HT1A receptor (P08908 whole entry): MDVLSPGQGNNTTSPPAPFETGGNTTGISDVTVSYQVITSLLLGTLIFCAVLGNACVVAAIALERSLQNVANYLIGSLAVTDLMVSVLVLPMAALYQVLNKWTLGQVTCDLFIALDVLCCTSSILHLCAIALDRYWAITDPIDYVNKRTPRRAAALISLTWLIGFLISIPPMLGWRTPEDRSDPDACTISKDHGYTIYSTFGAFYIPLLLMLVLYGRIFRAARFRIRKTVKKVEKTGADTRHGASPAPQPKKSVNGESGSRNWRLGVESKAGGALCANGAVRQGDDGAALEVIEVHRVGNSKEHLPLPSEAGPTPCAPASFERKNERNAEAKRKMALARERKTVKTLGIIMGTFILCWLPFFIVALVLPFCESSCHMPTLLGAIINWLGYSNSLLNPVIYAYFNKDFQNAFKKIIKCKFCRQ
Description: Pharmacological Test 1) 5-HT1A Receptor Agonism Activity Test

[2] = target: human recombinant 5-HT2A receptor (Homo sapiens (Human), UniProt P28223); assay: 5-HT2A receptor antagonism activity test (FLIPR Calcium 5 Assay Kit); settings: read-out: 5-HT2A receptor antagonism (IC50, mol/L)
Sequence of human recombinant 5-HT2A receptor (P28223 whole entry): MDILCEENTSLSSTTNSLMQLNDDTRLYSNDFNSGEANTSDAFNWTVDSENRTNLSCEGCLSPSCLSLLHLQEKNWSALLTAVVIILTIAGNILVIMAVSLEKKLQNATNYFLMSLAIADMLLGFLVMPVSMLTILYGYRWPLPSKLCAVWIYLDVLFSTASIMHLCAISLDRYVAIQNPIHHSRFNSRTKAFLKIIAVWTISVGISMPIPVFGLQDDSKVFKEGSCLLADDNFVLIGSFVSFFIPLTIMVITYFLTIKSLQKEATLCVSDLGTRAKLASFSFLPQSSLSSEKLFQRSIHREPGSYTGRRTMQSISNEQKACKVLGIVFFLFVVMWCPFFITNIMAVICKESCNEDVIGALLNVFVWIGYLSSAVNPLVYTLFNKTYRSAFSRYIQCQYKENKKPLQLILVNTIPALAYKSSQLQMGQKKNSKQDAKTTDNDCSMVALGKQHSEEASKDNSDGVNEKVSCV

[3] = target: human recombinant D2 receptor (Homo sapiens (Human), UniProt P14416); assay: D2 receptor antagonism activity test (inhibition of dopamine-induced decrease of cAMP production, LANCE cAMP 384 Kit); settings: read-out: D2 receptor antagonism (IC50, mol/L), HEK293 cells expressing human recombinant D2 receptor, 0.1 nM-10000 nM
Sequence of human recombinant D2 receptor (P14416 whole entry): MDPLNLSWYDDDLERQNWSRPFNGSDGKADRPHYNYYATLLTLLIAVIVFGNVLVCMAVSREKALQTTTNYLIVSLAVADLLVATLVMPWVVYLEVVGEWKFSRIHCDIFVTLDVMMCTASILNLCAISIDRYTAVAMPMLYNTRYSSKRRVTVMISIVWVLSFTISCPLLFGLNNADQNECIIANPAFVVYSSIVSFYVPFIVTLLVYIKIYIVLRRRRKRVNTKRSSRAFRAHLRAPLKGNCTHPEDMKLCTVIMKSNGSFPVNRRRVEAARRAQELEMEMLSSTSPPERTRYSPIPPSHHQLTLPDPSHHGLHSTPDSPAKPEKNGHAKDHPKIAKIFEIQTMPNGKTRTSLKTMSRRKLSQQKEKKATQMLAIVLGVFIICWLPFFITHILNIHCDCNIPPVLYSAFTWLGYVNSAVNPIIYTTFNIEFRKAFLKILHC

[4] = CHO-K1 cells expressing human recombinant 5-HT2A receptor, α-methyl-5-hydroxytryptamine 300 nM, 0.1 nM-10000 nM

| SMILES | EC50 [1] [nM] | IC50 [2, 4] [nM] | IC50 [3] [nM] | IC50 [2] [nM] |
| --- | --- | --- | --- | --- |
| O=C1Cc2cc(CCN3CCC(c4cccc5sccc45)CC3)c(Cl)cc2N1 [Compound of example 37, 5-(2-(4-(benzo[b]thiophen-4-yl)piperidin-1-yl)ethyl)-6-chloroindolin-2-one] | 3.11 | 28.1 | 51.9 | – |
| O=C1Cc2cc(CCN3CCN(c4cncc5sccc45)CC3)c(Cl)cc2N1 [Compound of example 42, 6-chloro-5-(2-(4-(thieno[2,3-c]pyridin-4-yl)piperazin-1-yl)ethyl)indolin-2-one] | 100 | 115 | 270 | – |
| O=c1ccc2ccc(CCN3CCN(c4cncc5sccc45)CC3)cc2[nH]1 [Compound of example 43, 7-(2-(4-(thieno[2,3-c]pyridin-4-yl)piperazin-1-yl)ethyl)quinolin-2(1H)-one] | 1.23 | 286 | 241 | – |
| c1ccc2[nH]c(CN3CCN(c4cccc5sccc45)CC3)nc2c1 [Compound of example 58, 2-((4-(benzo[b]thiophen-4-yl)piperazin-1-yl)methyl)-1H-benzo[d]imidazole] | 4.55 | 2170 | 101 | – |
| O=C1COc2cc(F)c(CCN3CCN(c4cccc5sccc45)CC3)cc2N1 [Compound of example 66, 6-(2-(4-(benzo[b]thiophen-4-yl)piperazin-1-yl)ethyl)-7-fluoro-2H-benzo[b][1,4]oxazin-3(4H)-one] | 1.29 | 81.5 | 61.7 | – |
| N#Cc1ccc2[nH]cc(CCCCN3CCN(c4cccc5sccc45)CC3)c2c1 [Compound of example 70, 3-(4-(4-(benzo[b]thiophen-4-yl)piperazin-1-yl)butyl)-1H-indole-5-carbonitrile] | 9.7 | 332 | 79.7 | – |
| O=C1Cc2cc(CCN3CCN(c4cc(F)cc5sccc45)CC3)ccc2N1 [Compound of example 84, 5-(2-(4-(6-fluorobenzo[b]thiophen-4-yl)piperazin-1-yl)ethyl)indolin-2-one] | 0.235 | 17.5 | 10.9 | – |
| Cn1c(=O)[nH]c2ccc(CCN3CCN(c4cccc5sccc45)CC3)cc21 [Compound of example 86, 6-(2-(4-(benzo[b]thiophen-4-yl)piperazin-1-yl)ethyl)-1-methyl-1H-benzo[d]imidazol-2(3H)-one] | 21.6 | 93.3 | 23.5 | – |
| Cc1nc2n(c(=O)c1CCN1CCN(c3cc(F)cc4sccc34)CC1)CCCC2 [Compound of example 90, 3-(2-(4-(6-fluorobenzo[b]thiophen-4-yl)piperazin-1-yl)ethyl)-2-methyl-6,7,8,9-tetrahydro-4H-pyrido[1,2-a]pyrimidin-4-one] | 27.7 | 13.6 | 10.4 | – |
| O=C1COc2ccc(CCN3CCC(c4cccc5sccc45)CC3)cc2N1 [Compound of example 97, 6-(2-(4-(benzo[b]thiophen-4-yl)piperidin-1-yl)ethyl)-2H-benzo[b][1,4]oxazin-3(4H)-one] | 0.223 | 173 | 6.81 | – |
| O=C1CCc2cc(CCN3CCC(c4cccc5sccc45)CC3)ccc2N1 [Compound of example 98, 6-(2-(4-(benzo[b]thiophen-4-yl)piperidin-1-yl)ethyl)-3,4-dihydroquinolin-2(1H)-one] | 2.9 | 185 | 12.4 | – |
| O=C1Cc2cc(CCCCN3CCN(c4cccc5sc(F)cc45)CC3)ccc2N1 [Compound of example 101, 5-(4-(4-(2-fluorobenzo[b]thiophen-4-yl)piperazin-1-yl)butyl)indolin-2-one] | 16.8 | 759 | 1.84 | – |
| O=C1CCc2cc(CCCCN3CCC(c4cccc5sccc45)CC3)ccc2N1 [Compound of example 104, 6-(4-(4-(benzo[b]thiophen-4-yl)piperidin-1-yl)butyl)-3,4-dihydroquinolin-2(1H)-one] | 12.3 | 106 | 98.8 | – |
| COc1ccc2[nH]cc(CCCN3CCN(c4cccc5sccc45)CC3)c2c1 [Compound of example 106, 3-(3-(4-(benzo[b]thiophen-4-yl)piperazin-1-yl)propyl)-5-methoxy-1H-indole] | 10.4 | 662 | 543 | – |
| COc1ccc2[nH]cc(CCCCN3CCN(c4cccc5sccc45)CC3)c2c1 [Compound of example 107, 3-(4-(4-(benzo[b]thiophen-4-yl)piperazin-1-yl)butyl)-5-methoxy-1H-indole] | 7.95 | 393 | 8.43 | – |
| N#Cc1ccc2[nH]cc(CCCN3CCN(c4cccc5sccc45)CC3)c2c1 [Compound of example 108, 3-(3-(4-(benzo[b]thiophen-4-yl)piperazin-1-yl)propyl)-1H-indole-5-carbonitrile] | 44.9 | 819 | 21.7 | – |
| CC(=O)n1cc(CCCCN2CCN(c3cccc4sccc34)CC2)c2cc(C#N)ccc21 [Compound of example 110, 1-acetyl-3-(4-(4-(benzo[b]thiophen-4-yl)piperazin-1-yl)butyl)-1H-indole-5-carbonitrile] | 84 | 1760 | 57.6 | – |
| O=C1CCc2cc(CCCCN3CCN(c4cccc5sccc45)CC3)ccc2N1 [Compound of example 111, 6-(4-(4-(benzo[b]thiophen-4-yl)piperazin-1-yl)butyl)-3,4-dihydroquinolin-2(1H)-one] | 29.5 | 400 | 23.9 | – |
| O=C1Cc2cc(CCN3CCN(c4cccc5sc(F)cc45)CC3)c(Cl)cc2N1 [Compound of example 113, 6-chloro-5-(2-(4-(2-fluorobenzo[b]thiophen-4-yl)piperazin-1-yl)ethyl)indolin-2-one] | 9.09 | 716 | 61 | – |
| CN1C(=O)COc2ccc(CCN3CCN(c4cccc5sccc45)CC3)cc21 [Compound of example 114, 6-(2-(4-(benzo[b]thiophen-4-yl)piperazin-1-yl)ethyl)-4-methyl-2H-benzo[b][1,4]oxazin-3(4H)-one] | 8.08 | 461 | 26.9 | – |
| CN1C(=O)CCc2ccc(CCN3CCN(c4cccc5sccc45)CC3)cc21 [Compound of example 115, 7-(2-(4-(benzo[b]thiophen-4-yl)piperazin-1-yl)ethyl)-1-methyl-3,4-dihydroquinolin-2(1H)-one] | 8.52 | – | 29.3 | 53.7 |
| CC(=O)Nc1nc2cc(CCN3CCN(c4cccc5sccc45)CC3)ccc2s1 [Compound of example 118, N-(5-(2-(4-(benzo[b]thiophen-4-yl)piperazin-1-yl)ethyl)benzo[d]thiazol-2-yl)acetamide] | 0.602 | 75 | 119 | – |
| CC(=O)Nc1nc2cccc(CCN3CCN(c4cccc5sccc45)CC3)c2s1 [Compound of example 119, N-(7-(2-(4-(benzo[b]thiophen-4-yl)piperazin-1-yl)ethyl)benzo[d]thiazol-2-yl)acetamide] | 0.787 | 34.3 | 4.69 | – |
| CC(=O)Nc1nc2c(CCN3CCN(c4cccc5sccc45)CC3)cccc2s1 [Compound of example 121, N-(4-(2-(4-(benzo[b]thiophen-4-yl)piperazin-1-yl)ethyl)benzo[d]thiazol-2-yl)acetamide] | 32 | 41 | 216 | – |
| O=C1N[C@@H]2[C@@H](CS[C@@H]2CCCCCN2CCN(c3cccc4sccc34)CC2)N1 [Compound of example 134, (3aR,4R,6aS)-4-(5-(4-(benzo[b]thiophen-4-yl)piperazin-1-yl)pentyl)tetrahydro-1H-thieno[3,4-d]imidazol-2(3H)-one] | 0.75 | 16.7 | 37.9 | – |
| O=C1COc2c(F)cc(CCN3CCN(c4cccc5sccc45)CC3)cc2N1 [Compound of example 139, 6-(2-(4-(benzo[b]thiophen-4-yl)piperazin-1-yl)ethyl)-8-fluoro-2H-benzo[b][1,4]oxazin-3(4H)-one] | 0.766 | 104 | 79.6 | – |
| COC(CN1CCN(c2cccc3sccc23)CC1)c1cccc2c1OCC(=O)N2 (stereo not drawn) [Compound of example 144, 8-(2-(4-(benzo[b]thiophen-4-yl)piperazin-1-yl)-1-methoxyethyl)-2H-benzo[b][1,4]oxazin-3(4H)-one] | 8.93 | – | 65.8 | 17 |
| O=C1Cc2cc(C(O)CN3CCN(c4cccc5sccc45)CC3)ccc2N1 (stereo not drawn) [Compound of example 145, 5-(2-(4-(benzo[b]thiophen-4-yl)piperazin-1-yl)-1-hydroxyethyl)indolin-2-one] | 6.3 | 14.7 | 192 | – |
| O=C1CCc2ccc(C(O)CCCCN3CCN(c4cccc5sccc45)CC3)cc2N1 (stereo not drawn) [Compound of example 150, 7-(5-(4-(benzo[b]thiophen-4-yl)piperazin-1-yl)-1-hydroxypentyl)-3,4-dihydroquinolin-2(1H)-one] | 15.7 | 108 | 4.54 | – |
| CC(=O)Nc1nc2ccc(CCN3CCN(c4cccc5sccc45)CC3)cc2s1 [Compound of example 153, N-(6-(2-(4-(benzo[b]thiophen-4-yl)piperazin-1-yl)ethyl)benzo[d]thiazol-2-yl)acetamide] | 2.35 | 18.9 | 3.8 | – |
